Measured values: patent publication US10376520B2, “Methods for the treatment of cardiovascular disorders” (Galapagos NV, priority 2015, dated 2019)

Test system: RA patients
Assay: LDL determination, Study 1 (RA patients, add-on to MTX)
Format: in vivo, human
Conditions: for [LDL] Mean CFB / [LDL] Median CFB: Study 1 12 weeks results
Experimental: Double-blind, placebo-controlled add on study in subjects with moderately to severely active RA who have an inadequate response to methotrexate (MTX) (oral or parenteral).
595 subjects randomized to one of 6 dose regimens of Compound 1 (dosed as a [Compound 1:HCl:3H2O]) (3 dose levels administered either once or twice daily) or placebo on top of each subject's stable dose of MTX.
Compound 1 (dosed as a [Compound 1:HCl:3H2O]) is dosed for twelve weeks once daily (q.d.) (50 mg, 100 mg or 200 mg) or twice daily (b.i.d.) (25 mg, 50 mg or 100 mg); or placebo.
At Week 12, the subjects on placebo who have not achieved 20% improvement in swollen joint count (SJC66) and tender joint count (TJC68) are re-randomized automatically to receive Compound 1 (dosed as a [Compound 1:HCl:3H2O]) either at 100 mg q.d. or 50 mg b.i.d. doses in a blinded fashion; subjects on 50 mg q.d. who have not achieved 20% improvement in SJC66 and TJC68 will be assigned to 100 mg q.d. and subjects on 25 mg b.i.d. that have not achieved a 20% improvement in SJC66 and TJC68 will be assigned to 50 mg b.i.d. Subjects who switch treatment at week 12 are handled as if they discontinued at week 12 for the purpose of statistical analysis, whereas subjects in the other groups will maintain their randomized treatment until Week 24.
The determination of [LDL]-cholesterol is made using an automated method taking advantage of the selective micellary solubilization of [LDL]-cholesterol by a nonionic detergent and the interaction of a sugar compound and lipoproteins (VLDL and chylomicrons).
When a detergent is included in the enzymatic method for cholesterol determination (cholesterol esterase, cholesterol oxidase coupling reaction), the relative reactivities of cholesterol in the lipoprotein fractions increase in this order: [HDL]<chylomicrons <VLDL <[LDL]. In the presence of Mg^2+, a sugar compound markedly reduces the enzymatic reaction of the cholesterol measurement in VLDL and chylomicrons. The combination of a sugar compound with detergent enables the selective determination of [LDL]-cholesterol in serum. (Friedewald et al., 1972; Rifai et al., 1992)
Homogeneous enzymatic colorimetric assay.
In the presence of peroxidase, the hydrogen peroxide generated reacts with 4-aminoantipyrine and Sodium N-(2-hydroxy-3-sulfopropyl)-3,5-dimethoxyaniline (HSDA) to form a purple-blue dye.
The color intensity of this dye is directly proportional to the cholesterol concentration and is measured photometrically.
Human serum and plasma samples [LDL] determination was done on a Roche/Hitachi Cobas c 701/702 system which automatically calculate the analyte concentration of each sample. Samples containing precipitates are centrifuged before performing the assay.

Compound: O=C(Nc1nc2cccc(-c3ccc(CN4CCS(=O)(=O)CC4)cc3)n2n1)C1CC1 [Compound 1, cyclopropanecarboxylic acid {5-[4-(1,1-dioxo-thiomorpholin-4-ylmethyl)-phenyl]-[1,2,4]triazolo[1,5-a]pyridin-2yl}-amide]
- [LDL] Mean percentage CFB - 24 weeks results (25 mg b.i.d continued over 24 weeks, week 1): 2.79%
- [LDL] Mean percentage CFB - 24 weeks results (25 mg b.i.d continued over 24 weeks, week 2): 3.88%
- [LDL] Mean percentage CFB - 24 weeks results (25 mg b.i.d continued over 24 weeks, week 4): 4.15%
- [LDL] Mean percentage CFB - 24 weeks results (25 mg b.i.d continued over 24 weeks, week 8): 3.83%
- [LDL] Mean percentage CFB - 24 weeks results (25 mg b.i.d continued over 24 weeks, week 12): 7.21%
- [LDL] Mean percentage CFB - 24 weeks results (25 mg b.i.d continued over 24 weeks, week 16): 6.54%
- [LDL] Mean percentage CFB - 24 weeks results (25 mg b.i.d continued over 24 weeks, week 20): 7.42%
- [LDL] Mean percentage CFB - 24 weeks results (25 mg b.i.d continued over 24 weeks, week 24): 8.14%
- [LDL] Mean percentage CFB - 24 weeks results (50 mg b.i.d. continued over 24 weeks, week 1): 4.19%
- [LDL] Mean percentage CFB - 24 weeks results (50 mg b.i.d. continued over 24 weeks, week 2): 3.43%
- [LDL] Mean percentage CFB - 24 weeks results (50 mg b.i.d. continued over 24 weeks, week 4): 7.11%
- [LDL] Mean percentage CFB - 24 weeks results (50 mg b.i.d. continued over 24 weeks, week 8): 4.75%
- [LDL] Mean percentage CFB - 24 weeks results (50 mg b.i.d. continued over 24 weeks, week 12): 2.33%
- [LDL] Mean percentage CFB - 24 weeks results (50 mg b.i.d. continued over 24 weeks, week 16): 5.78%
- [LDL] Mean percentage CFB - 24 weeks results (50 mg b.i.d. continued over 24 weeks, week 20): 7.08%
- [LDL] Mean percentage CFB - 24 weeks results (50 mg b.i.d. continued over 24 weeks, week 24): 8.29%
- [LDL] Mean percentage CFB - 12 weeks results (50 mg q.d. (N = 82), week 1): 0%
- [LDL] Mean percentage CFB - 12 weeks results (50 mg q.d. (N = 82), week 2): 1%
- [LDL] Mean percentage CFB - 12 weeks results (50 mg q.d. (N = 82), week 4): 0%
- [LDL] Mean percentage CFB - 12 weeks results (50 mg q.d. (N = 82), week 8): 3%
- [LDL] Mean percentage CFB - 12 weeks results (50 mg q.d. (N = 82), week 12): 6%
- [LDL] Mean percentage CFB - 24 weeks results (50 mg q.d. continued over 24 weeks, week 1): 0.26%
- [LDL] Mean percentage CFB - 24 weeks results (50 mg q.d. continued over 24 weeks, week 2): −0.24%
- [LDL] Mean percentage CFB - 24 weeks results (50 mg q.d. continued over 24 weeks, week 4): 0.35%
- [LDL] Mean percentage CFB - 24 weeks results (50 mg q.d. continued over 24 weeks, week 8): 3.58%
- [LDL] Mean percentage CFB - 24 weeks results (50 mg q.d. continued over 24 weeks, week 12): 6.67%
- [LDL] Mean percentage CFB - 24 weeks results (50 mg q.d. continued over 24 weeks, week 16): 6.70%
- [LDL] Mean percentage CFB - 24 weeks results (50 mg q.d. continued over 24 weeks, week 20): 6.29%
- [LDL] Mean percentage CFB - 24 weeks results (50 mg q.d. continued over 24 weeks, week 24): 6.05%
- [LDL] Mean percentage CFB - 24 weeks results (100 mg b.i.d. continued over 24 weeks, week 1): 8.14%
- [LDL] Mean percentage CFB - 24 weeks results (100 mg b.i.d. continued over 24 weeks, week 4): 7.69%
- [LDL] Mean percentage CFB - 24 weeks results (100 mg b.i.d. continued over 24 weeks, week 8): 13.14%
- [LDL] Mean percentage CFB - 24 weeks results (100 mg b.i.d. continued over 24 weeks, week 12): 11.86%
- [LDL] Mean percentage CFB - 24 weeks results (100 mg b.i.d. continued over 24 weeks, week 16): 9.44%
- [LDL] Mean percentage CFB - 24 weeks results (100 mg b.i.d. continued over 24 weeks, week 20): 7.71%
- [LDL] Mean percentage CFB - 24 weeks results (100 mg b.i.d. continued over 24 weeks, week 24): 12.88%
- [LDL] Mean percentage CFB - 12 weeks results (100 mg q.d. (N = 85), week 1): 5%
- [LDL] Mean percentage CFB - 12 weeks results (100 mg q.d. (N = 85), week 2): 2%
- [LDL] Mean percentage CFB - 12 weeks results (100 mg q.d. (N = 85), week 4): 5%
- [LDL] Mean percentage CFB - 12 weeks results (100 mg q.d. (N = 85), week 8): 4%
- [LDL] Mean percentage CFB - 12 weeks results (100 mg q.d. (N = 85), week 12): 6%
- [LDL] Mean percentage CFB - 24 weeks results (100 mg q.d. continued over 24 weeks, week 1): 5.08%
- [LDL] Mean percentage CFB - 24 weeks results (100 mg q.d. continued over 24 weeks, week 2): 1.97%
- [LDL] Mean percentage CFB - 24 weeks results (100 mg q.d. continued over 24 weeks, week 4): 5.31%
- [LDL] Mean percentage CFB - 24 weeks results (100 mg q.d. continued over 24 weeks, week 8): 3.51%
- [LDL] Mean percentage CFB - 24 weeks results (100 mg q.d. continued over 24 weeks, week 12): 5.69%
- [LDL] Mean percentage CFB - 24 weeks results (100 mg q.d. continued over 24 weeks, week 16): 0.89%
- [LDL] Mean percentage CFB - 24 weeks results (100 mg q.d. continued over 24 weeks, week 20): 1.19%
- [LDL] Mean percentage CFB - 24 weeks results (100 mg q.d. continued over 24 weeks, week 24): 2.66%
- [LDL] Mean percentage CFB - 12 weeks results (200 mg q.d. (N = 86), week 1): 6%
- [LDL] Mean percentage CFB - 12 weeks results (200 mg q.d. (N = 86), week 2): 6%
- [LDL] Mean percentage CFB - 12 weeks results (200 mg q.d. (N = 86), week 4): 6%
- [LDL] Mean percentage CFB - 12 weeks results (200 mg q.d. (N = 86), week 8): 8%
- [LDL] Mean percentage CFB - 12 weeks results (200 mg q.d. (N = 86), week 12): 8%
- [LDL] Mean percentage CFB - 24 weeks results (200 mg q.d. continued over 24 weeks, week 1): 6.34%
- [LDL] Mean percentage CFB - 24 weeks results (200 mg q.d. continued over 24 weeks, week 2): 5.81%
- [LDL] Mean percentage CFB - 24 weeks results (200 mg q.d. continued over 24 weeks, week 4): 5.97%
- [LDL] Mean percentage CFB - 24 weeks results (200 mg q.d. continued over 24 weeks, week 8): 7.93%
- [LDL] Mean percentage CFB - 24 weeks results (200 mg q.d. continued over 24 weeks, week 12): 7.96%
- [LDL] Mean percentage CFB - 24 weeks results (200 mg q.d. continued over 24 weeks, week 16): 7.99%
- [LDL] Mean percentage CFB - 24 weeks results (200 mg q.d. continued over 24 weeks, week 20): 8.85%
- [LDL] Mean percentage CFB - 24 weeks results (200 mg q.d. continued over 24 weeks, week 24): 7.78%
- [LDL] Mean percentage CFB - 12 weeks results (2 x 25 mg b.i.d. (N = 86), week 1): 3%
- [LDL] Mean percentage CFB - 12 weeks results (2 x 25 mg b.i.d. (N = 86), week 2): 4%
- [LDL] Mean percentage CFB - 12 weeks results (2 x 25 mg b.i.d. (N = 86), week 4): 3%
- [LDL] Mean percentage CFB - 12 weeks results (2 x 25 mg b.i.d. (N = 86), week 8): 2%
- [LDL] Mean percentage CFB - 12 weeks results (2 x 25 mg b.i.d. (N = 86), week 12): 6%
- [LDL] Mean percentage CFB - 12 weeks results (2 x 50 mg b.i.d. (N = 85), week 1): 4%
- [LDL] Mean percentage CFB - 12 weeks results (2 x 50 mg b.i.d. (N = 85), week 2): 3%
- [LDL] Mean percentage CFB - 12 weeks results (2 x 50 mg b.i.d. (N = 85), week 4): 7%
- [LDL] Mean percentage CFB - 12 weeks results (2 x 50 mg b.i.d. (N = 85), week 8): 5%
- [LDL] Mean percentage CFB - 12 weeks results (2 x 50 mg b.i.d. (N = 85), week 12): 2%
- [LDL] Mean percentage CFB - 12 weeks results (2 x 100 mg b.i.d. (N = 84), week 1): 8%
- [LDL] Mean percentage CFB - 12 weeks results (2 x 100 mg b.i.d. (N = 84), week 2): 6%
- [LDL] Mean percentage CFB - 12 weeks results (2 x 100 mg b.i.d. (N = 84), week 4): 8%
- [LDL] Mean percentage CFB - 12 weeks results (2 x 100 mg b.i.d. (N = 84), week 8): 13%
- [LDL] Mean percentage CFB - 12 weeks results (2 x 100 mg b.i.d. (N = 84), week 12): 12%
- [LDL] Mean CFB (50 mg q.d., week 1): -0.01 mmol/L
- [LDL] Median CFB (50 mg q.d., week 1): -0.01 mmol/L
- [LDL] Mean CFB (50 mg q.d., week 2): 0.02 mmol/L
- [LDL] Median CFB (50 mg q.d., week 2): 0.02 mmol/L
- [LDL] Mean CFB (50 mg q.d., week 4): 0.01 mmol/L
- [LDL] Median CFB (50 mg q.d., week 4): -0.01 mmol/L
- [LDL] Mean CFB (50 mg q.d., week 8): 0.06 mmol/L
- [LDL] Median CFB (50 mg q.d., week 8): 0.07 mmol/L
- [LDL] Mean CFB (50 mg q.d., week 12): 0.14 mmol/L
- [LDL] Median CFB (50 mg q.d., week 12): 0.13 mmol/L
- [LDL] Mean CFB (100 mg q.d., week 1): 0.11 mmol/L
- [LDL] Median CFB (100 mg q.d., week 1): 0.1 mmol/L
- [LDL] Mean CFB (100 mg q.d., week 2): 0.01 mmol/L
- [LDL] Median CFB (100 mg q.d., week 2): 0.02 mmol/L
- [LDL] Mean CFB (100 mg q.d., week 4): 0.13 mmol/L
- [LDL] Median CFB (100 mg q.d., week 4): 0.13 mmol/L
- [LDL] Mean CFB (100 mg q.d., week 8): 0.03 mmol/L
- [LDL] Median CFB (100 mg q.d., week 8): 0.05 mmol/L
- [LDL] Mean CFB (100 mg q.d., week 12): 0.13 mmol/L
- [LDL] Median CFB (100 mg q.d., week 12): 0.13 mmol/L
- [LDL] Mean CFB (200 mg q.d., week 1): 0.16 mmol/L
- [LDL] Median CFB (200 mg q.d., week 1): 0.16 mmol/L
